Laboratory results reported in paper PMC5914092, “Evaluation of Aldose Reductase, Protein Glycation, and Antioxidant Inhibitory Activities of Bioactive Flavonoids in Matricaria recutita L. and Their Structure-Activity Relationship” (Journal of Diabetes Research, 2018).
“Also recorded” adds a separate entry of the source. Read-outs that look alike come from different tables or passages of the source. Marks after values point to notes of the source that are not given here.

What was measured:
[1] = target: T1, rat lens aldose reductase (RLAR) (Rattus norvegicus, UniProt P07943); assay: Determination of RLAR inhibition (NADPH absorbance decrease at 340 nm, DL-glyceraldehyde substrate); format: biochemical; conditions: crude RLAR homogenate; inhibitor concentrations 1, 5, 10 μg/mL; mean ± RSD; NI: no inhibition
T1 construct: The supernatant was collected and used as RLAR; from tissue; host or cells: lens of Sprague-Dawley rats (supernatant of the homogenate after 10,000g)
Protocol: Crude RLAR was prepared as follows: lenses were removed from Sprague-Dawley rats (weighing 250–280 g) and frozen at −70°C until use. Noncataractous transparent lenses were pooled and a homogenate was prepared in 0.1 M phosphate buffered saline (pH 6.2). The RLAR homogenate was then centrifuged at 10,000g for 20 min at 4°C in a refrigerated centrifuge. The supernatant was collected and used as RLAR [22].
A total of 531 μL of 0.1 M potassium buffer (pH 7.0), 90 μL of NADPH solution (1.6 mM in potassium buffer), 90 μL of RLAR homogenate (6.5 U/mg), 90 μL of ammonium sulfate solution (4 M in potassium buffer), and 90 μL of DL-glyceraldehyde (25 mM in potassium buffer) were mixed with 9 μL of different concentrations of samples (1–0.1 mg/mL in DMSO, less than 1% in total mixture) in a cuvette, and the activity of RLAR was assessed spectrophotometrically by measuring the decrease in NADPH absorbance at 340 nm for 3 minutes using a spectrophotometer (SECOMAM, Ales Cedex, France).

[2] = system: advanced glycation end products (AGEs); assay: Methylglyoxal-bovine serum albumin assay investigating AGE formation; format: biochemical; conditions: methylglyoxal-BSA, 37°C 24 h, mean ± RSD
Protocol: Bovine serum albumin (50 mg/mL) was incubated with methylglyoxal (100 mM) in sodium phosphate buffer (0.1 M, pH 7.4) in the presence of various concentrations of the compounds (including a control) at 37°C for 24 h. Then the fluorescent intensity was measured at an excitation wavelength of 355 nm and an emission wavelength of 460 nm with a luminescence spectrometer LS50B (PerkinElmer Ltd., Buckinghamshire, England). […] All reagents and samples were sterilized by filtration through […] membrane filters.

[3] = DPPH free radical scavenging capacity; conditions: concentrations 15, 30, 75 μg/mL, mean ± RSD
Protocol: DPPH, a stable free radical, was used to determine the free radical-scavenging activity of the extracts. Briefly, a 0.32 mM DPPH solution in MeOH were prepared, and 180 μL of this solution was mixed with 30 μL of each sample at concentrations of 0.05–1.0 mg/mL in DMSO. After 20 min of incubation in the dark, the decrease in the absorbance of the solution was measured at 570 nm on a microplate reader (EL800 Universal Microplate reader, Bio-Tek instruments, Winooski, VT, USA). DPPH radical-scavenging activity was expressed as the percentage inhibition (%) of DPPH in this assay system and was calculated as (1 − B/A) × 100, where A and B are the activities of DPPH without and with the test material, respectively.

[4] = system: sorbitol accumulation in rat lens; assay: Lens culture and intracellular sorbitol measurement (ex vivo, high glucose); format: cell-based; conditions: for inhibition at 5 µg/mL: read-out: Inhibition (%) of sorbitol accumulation in rat lens; for Sorbitol content (mg)/lens wet weight (g): rat lens cultured 6 d in medium with 30 mM glucose, control by G 1.47 ± 0.02
Protocol: Lens isolated from 10-week old Sprague-Dawley rats were cultured for 6 d in TC-199 medium containing 15% fetal bovine serum, 100 units/mL penicillin, and 0.1 mg/mL streptomycin, under sterile conditions and an atmosphere of 5% CO2 and 95% air at 37°C. Samples were dissolved in DMSO. The lens were divided into three groups (each group n = 3) and cultured in medium containing 30 mM glucose and RLAR-active compounds. Each lens was placed in a well containing 2.0 mL medium. Sorbitol was identified by HPLC after its derivatization by reaction with benzoic acid to form a fluorescent compound [25].

[5] = target: T1, rat lens aldose reductase (RLAR); conditions: cited from earlier work; for IC50: compounds isolated from other plant sources, read-out: RLAR inhibitory activity (reported data)
[6] = concentrations 10, 25, 50 μg/mL, NI: no inhibition
[7] = sample 5 μg/mL, mean ± SD (n = 3)
[8] = rat lens cultured in 30 mM glucose, sample 5 μg/mL, mean ± SD (n = 3)

IC50 [2, 6] [µM] | Compound | Sorbitol content (mg)/lens wet weight (g) [4, 7] | inhibition at 5 µg/mL [4, 8] [%] | also measured
> 97 | COc1cc2oc(-c3ccc(O)cc3)c(OC)c(=O)c2c(O)c1OC [Compound 3, penduletin] |  |  | IC50 [1]: > 28 µM; IC50 RLAR [1]: inactive; also recorded: did not show inhibitory activities; IC50 AGEs [2, 6]: did not show inhibitory activities; IC50 ([3]; NI: no inhibition): > 208 µM; IC50 DPPH ([3]; NI: no inhibition): almost no effect
> 97 | O=c1cc(-c2ccc(O)cc2)oc2cc(O)cc(O)c12 [Compound 9, apigenin] | 0.19 ± 0.01^a mg/g | 87.1 ± 4.48 | 
 | O=c1cc(-c2ccc(O)c(O)c2)oc2cc(O)cc(O[C@@H]3O[C@H](CO)[C@@H](O)[C@H](O)[C@H]3O)c12 [luteolin-5-O-β-D-glucopyranoside, reference compound] |  |  | Inhibitory activity on RLAR relative to its precursor (luteolin) ([5]; isolated from Cirsium maackii): ~1.58 times
> 97 | O=c1cc(-c2ccc(O)cc2)oc2cc(O)c(O)c(O)c12 [Compound 8, 6-hydroxyapigenin] |  |  | IC50 [1]: > 28 µM; IC50 RLAR [1]: inactive; also recorded: did not show inhibitory activities; IC50 AGEs [2, 6]: did not show inhibitory activities; IC50 ([3]; NI: no inhibition): > 208 µM; IC50 DPPH ([3]; NI: no inhibition): almost no effect
 | N=C(N)NN [Aminoguanidine, aminoguanidine, reference compound] |  |  | IC50 AGEs ([2]; concentrations 20, 100, 200 μg/mL): 109.10 ± 3.47^a μg/mL
 | O=c1cc(-c2ccc(O)c(O)c2)oc2cc(O)cc(O)c12 [Compound 10, luteolin] | 0.12 ± 0.01^a mg/g | 91.8 ± 6.87 | 
> 97 | O=c1cc(-c2ccc(O)cc2)oc2cc(O[C@@H]3O[C@H](CO)[C@@H](O)[C@H](O)[C@H]3O)cc(O)c12 [Compound 1, apigenin-7-O-β-D-glucoside] | 0.72 ± 0.01^c mg/g | 51 ± 1.68 | IC50 ([3]; NI: no inhibition): > 250 µM; IC50 [5]: 23 µM
 | O=C1O[C@H]([C@@H](O)CO)C(O)=C1O [L-Ascorbic acid, reference compound] |  |  | IC50 DPPH ([3]; three independent experiments in duplicate): 6.60 ± 0.33^a μg/mL
 | O=C(O)[C@H]1O[C@@H](Oc2cc(O)c3c(=O)cc(-c4ccc(O)c(O)c4)oc3c2)[C@H](O)[C@@H](O)[C@@H]1O [Compound 6, luteolin-7-O-β-D-glucuronide] | 0.12 ± 0.01^a mg/g | 91.8 ± 6.74 | 
 | O=c1c(O)c(-c2ccc(O)c(O)c2)oc2cc(O)cc(O)c12 [Quercetin, quercetin, reference compound] | 0.21 ± 0.01^a mg/g | 85.7 ± 3.23 | 
> 97 | O=c1cc(-c2ccc(O)c(O)c2)oc2cc(O[C@@H]3O[C@H](CO)[C@@H](O)[C@H](O)[C@H]3O)cc(O)c12 [Compound 2, luteolin-7-O-β-D-glucoside] | 0.07 ± 0.01^a mg/g | 95.2 ± 8.18 | IC50 [5]: 0.99 µM
> 97 | O=C(O)[C@H]1O[C@@H](Oc2cc(O)c3c(=O)cc(-c4ccc(O)cc4)oc3c2)[C@H](O)[C@@H](O)[C@@H]1O [Compound 5, apigenin-7-O-β-D-glucuronide] | 0.29 ± 0.01^b mg/g | 80.3 ± 2.78 | 

Compound | IC50 [2, 6] [µM] | Sorbitol content (mg)/lens wet weight (g) [4, 7] | inhibition at 5 µg/mL [4, 8] [%] | also measured
O=C(C=Cc1ccc(O)c(O)c1)OC1CC(O)(C(=O)O)CC(OC(=O)C=Cc2ccc(O)c(O)c2)C1O (stereo not drawn) [Compound 7, 3,5-O-di-caffeoylquinic acid] | > 97 | 0.20 ± 0.01^a mg/g |  | inhibition at 5 µg/mL ([4]; Rattus norvegicus): 86.4 ± 4.28%
